Laboratory results as given in US9079913B2, “Spiro-oxindole MDM2 antagonists” (The Regents of the University of Michigan, priority 2009, dated 2015).
Like-named read-outs stand apart in the source and are kept apart here.

Experiments:
[1] = biological target: recombinant human His-tagged MDM2 protein (residues 1-118) (Homo sapiens (Human), UniProt Q00987); assay: Fluorescence-polarization MDM2 binding assay;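 also: fluorescence polarization read after three hours of incubation in potassium phosphate buffer containing bovine gamma globulin and Triton X-100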
Sequence of recombinant human His-tagged MDM2 protein (residues 1-118) (Q00987 1-118): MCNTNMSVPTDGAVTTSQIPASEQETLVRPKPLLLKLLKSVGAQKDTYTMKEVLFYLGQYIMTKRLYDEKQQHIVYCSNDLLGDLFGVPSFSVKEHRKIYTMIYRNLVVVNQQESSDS
Experimental: The assay was performed in the buffer: 100 mM potassium phosphate, pH 7.5; 100 μg/mL bovine gamma globulin; 0.02% sodium azide, 0.01% Triton X-100) and the polarization values were measured after 3 h of incubation using an ULTRA READER (Tecan U.S. Inc., Research Triangle Park, N.C.). […] The Kd value was calculated using the equation: Kd value=IC50−L0/2.
The polarization values were measured after 3 h of incubation. […] Curve fitting was performed using [sequence] PRISM software (GraphPad Software, Inc., San Diego, Calif.). […] Compounds shown in Tables 19A-D as the free base were tested either as the free base or as the CF3CO2H (TFA) or HCl salt.

[2] = system: cancer cell lines with wild-type p53 / mutated or deleted p53 (ATCC); assay: Cell growth assay (WST-8), other cancer cell lines; type: cell-based
[3] = system: Isogenic HCT-116 colon cancer cell lines; assay: cells; type: cell-based;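 also: cells grown in 96-well plates in McCoy's 5A medium with 10% FBS, exposed to compound for 4 days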
Experimental: Cells were seeded in 96-well flat bottom cell culture plates at a density of 2−3×10^3 cells/well with compounds and incubated for 4 days.

[4] = In vitro microsomal stability, human; type: in vitro ADME; conditions: for Microsomal stability, % remaining: Human Microsome, same batch
[5] = In vitro microsomal stability, rat; type: in vitro ADME; conditions: for Microsomal stability, % remaining: Rat Microsome, same batch
[6] = Table 19C, read-out: Bidning affinities to MDM2 as determined using FP assay IC50
[7] = Homo sapiens, LNCaP, Table 19C, LNCaP cells, read-out: Cell growth inhibition using WST assay, LNCaP IC50
[8] = Homo sapiens, PC-3, Table 19C, PC3 cells, read-out: Cell growth inhibition using WST assay, PC3 IC50
[9] = Homo sapiens, HCT-116, read-out: Cell growth inhibition using WST assay, HCT116 p53KO IC50, Table 19C, HCT116 p53KO
[10] = Homo sapiens, HCT-116, read-out: Cell growth inhibition using WST assay, HCT116 p53WT IC50, Table 19C, HCT116 p53WT

CC(C)(C)C[C@H]1N[C@@H](C(=O)NCC[C@H](O)CN)[C@H](c2cccc(Cl)c2)[C@@]12C(=O)Nc1cc(Cl)c(F)cc12 [MI-319-25]
IC50 [1, 6]: < 1 µM
IC50 [2, 7]: < 5 µM
IC50 [2, 8]: > 10 µM
IC50 [3, 9]: > 10 µM
IC50 [3, 10]: < 5 µM

CC(C)(C)C[C@H]1N[C@@H](C(=O)NCC[C@H](O)COC(=O)CC(=O)O)[C@H](c2ccc(F)c(Cl)c2)[C@@]12C(=O)Nc1cc(Cl)c(F)cc12 [MI-319-26]
IC50 [1, 6]: < 1 µM
IC50 [2, 7]: < 5 µM
IC50 [2, 8]: > 10 µM
IC50 [3, 9]: > 10 µM
IC50 [3, 10]: < 5 µM

CCOP(=O)(OCC)OC[C@@H](O)CCNC(=O)[C@@H]1N[C@H](CC(C)(C)C)[C@]2(C(=O)Nc3cc(Cl)c(F)cc32)[C@H]1c1ccc(F)c(Cl)c1 [MI-319-27]
IC50 [1, 6]: < 5 µM
IC50 ([2]; Homo sapiens, LNCaP, read-out: Cell growth inhibition using WST assay, LNCaP IC50): < 5 µM
IC50 ([2]; Homo sapiens, PC-3, read-out: Cell growth inhibition using WST assay, PC3 IC50): > 10 µM
IC50 [3, 9]: > 10 µM
IC50 [3, 10]: < 5 µM

CC(O)C(O)CCNC(=O)[C@@H]1N[C@H](CC(C)(C)C)[C@]2(C(=O)Nc3cc(Cl)c(F)cc32)[C@H]1c1cccc(Cl)c1 (stereo partly drawn) [MI-519-31]
% of compound remaining when incubated in human liver microsomes with NADPH ([4]; 0 min): 100.00%
% of compound remaining when incubated in human liver microsomes with NADPH ([4]; 5 min): 78.11%
% of compound remaining when incubated in human liver microsomes with NADPH ([4]; 10 min): 58.15%
% of compound remaining when incubated in human liver microsomes with NADPH ([4]; 15 min): 45.42%
% of compound remaining when incubated in human liver microsomes with NADPH ([4]; 30 min): 22.75%
% of compound remaining when incubated in human liver microsomes with NADPH ([4]; 45 min): 13.25%
% of compound remaining when incubated in human liver microsomes with NADPH ([4]; 60 min): 8.56%
Microsomal stability, % remaining ([4]; 0 min): 100.00%
Microsomal stability, % remaining ([4]; 5 min): 78.11%
Microsomal stability, % remaining ([4]; 10 min): 58.15%
Microsomal stability, % remaining ([4]; 15 min): 45.42%
Microsomal stability, % remaining ([4]; 30 min): 22.75%
Microsomal stability, % remaining ([4]; 45 min): 13.25%
Microsomal stability, % remaining ([4]; 60 min): 8.56%
% of compound remaining when incubated in human liver microsomes with NADPH ([4]; human liver microsomes, NADPH, 0 min): 100.00%
% of compound remaining when incubated in human liver microsomes with NADPH ([4]; human liver microsomes, NADPH, 5 min): 78.11%
% of compound remaining when incubated in human liver microsomes with NADPH ([4]; human liver microsomes, NADPH, 10 min): 58.15%
% of compound remaining when incubated in human liver microsomes with NADPH ([4]; human liver microsomes, NADPH, 15 min): 45.42%
% of compound remaining when incubated in human liver microsomes with NADPH ([4]; human liver microsomes, NADPH, 30 min): 22.75%
% of compound remaining when incubated in human liver microsomes with NADPH ([4]; human liver microsomes, NADPH, 45 min): 13.25%
% of compound remaining when incubated in human liver microsomes with NADPH ([4]; human liver microsomes, NADPH, 60 min): 8.56%
half-life ([4]; human, liver microsomes, human liver microsomes with NADPH): 13 min
IC50 ([2]; Table 19A, LNCAP cells, p53 wild-type, cell growth, read-out: LNCAP (p53 wild-type) IC50): 1.3 ± 0.2 µM
IC50 ([2]; Table 19A, PC-3 cells, deleted p53, cell growth, read-out: PC-3 (deleted p53) IC50): 24.7 ± 2 µM
% of compound remaining when incubated in rat liver microsomes at indicated time (min) ([5]; 0 min): 100%
% of compound remaining when incubated in rat liver microsomes with NADPH ([5]; 0 min): 100.00%
% of compound remaining when incubated in rat liver microsomes at indicated time (min) ([5]; 4 min): 80.1%
% of compound remaining when incubated in rat liver microsomes with NADPH ([5]; 5 min): 80.22%
% of compound remaining when incubated in rat liver microsomes at indicated time (min) ([5]; 6 min): 69.4%
% of compound remaining when incubated in rat liver microsomes at indicated time (min) ([5]; 10 min): 54.3%
% of compound remaining when incubated in rat liver microsomes with NADPH ([5]; 10 min): 65.69%
% of compound remaining when incubated in rat liver microsomes at indicated time (min) ([5]; 15 min): 47.7%
% of compound remaining when incubated in rat liver microsomes with NADPH ([5]; 15 min): 57.57%
% of compound remaining when incubated in rat liver microsomes at indicated time (min) ([5]; 30 min): 31%
% of compound remaining when incubated in rat liver microsomes with NADPH ([5]; 30 min): 42.91%
% of compound remaining when incubated in rat liver microsomes with NADPH ([5]; 45 min): 34.31%
% of compound remaining when incubated in rat liver microsomes with NADPH ([5]; 60 min): 32.81%
Microsomal stability, % remaining ([5]; 0 min): 100.00%
Microsomal stability, % remaining ([5]; 5 min): 80.22%
Microsomal stability, % remaining ([5]; 10 min): 65.69%
Microsomal stability, % remaining ([5]; 15 min): 57.57%
Microsomal stability, % remaining ([5]; 30 min): 42.91%
Microsomal stability, % remaining ([5]; 45 min): 34.31%
Microsomal stability, % remaining ([5]; 60 min): 32.81%
% of compound remaining when incubated in rat liver microsomes with NADPH ([5]; rat liver microsomes, NADPH, 0 min): 100.00%
% of compound remaining when incubated in rat liver microsomes with NADPH ([5]; rat liver microsomes, NADPH, 5 min): 80.22%
% of compound remaining when incubated in rat liver microsomes with NADPH ([5]; rat liver microsomes, NADPH, 10 min): 65.69%
% of compound remaining when incubated in rat liver microsomes with NADPH ([5]; rat liver microsomes, NADPH, 15 min): 57.57%
% of compound remaining when incubated in rat liver microsomes with NADPH ([5]; rat liver microsomes, NADPH, 30 min): 42.91%
% of compound remaining when incubated in rat liver microsomes with NADPH ([5]; rat liver microsomes, NADPH, 45 min): 34.31%
% of compound remaining when incubated in rat liver microsomes with NADPH ([5]; rat liver microsomes, NADPH, 60 min): 32.81%
half-life ([5]; rat, liver microsomes, rat liver microsomes with NADPH): 18.7 min
IC50 ([3]; read-out: HCT-116 (p53-/-) IC50, Table 19A, HCT-116 p53-/-, cell growth): 20.1 ± 2.5 µM
IC50 ([3]; read-out: HCT-116 (p53 wild-type) IC50, Table 19A, HCT-116 p53 wild-type, cell growth): 2 ± 0.8 µM

CC(C)(C)C[C@H]1N[C@@H](C(=O)NC2CC(O)C2)[C@H](c2cccc(Cl)c2F)[C@@]12C(=O)Nc1cc(Cl)ccc12 (stereo partly drawn) [MI-519-60]
% of compound remaining when incubated in human liver microsomes with NADPH ([4]; 0 min): 100%
% of compound remaining when incubated in human liver microsomes with NADPH ([4]; 5 min): 83.26%
% of compound remaining when incubated in human liver microsomes with NADPH ([4]; 10 min): 68.14%
% of compound remaining when incubated in human liver microsomes with NADPH ([4]; 15 min): 51.54%
% of compound remaining when incubated in human liver microsomes with NADPH ([4]; 30 min): 49.28%
% of compound remaining when incubated in human liver microsomes with NADPH ([4]; 45 min): 40.97%
% of compound remaining when incubated in human liver microsomes with NADPH ([4]; 60 min): 37.55%
cell growth inhibition (in words) [2]: more potent than its epimer MI-519-63
IC50 ([2]; Homo sapiens, LNCaP, read-out: LNCAP (p53 wild-type) IC50): < 3 µM
IC50 ([2]; Homo sapiens, SJSA-1, read-out: SJSA-1 (p53 wild-type) IC50): < 3 µM
% of compound remaining when incubated in rat liver microsomes with NADPH ([5]; 0 min): 100%
% of compound remaining when incubated in rat liver microsomes with NADPH ([5]; 5 min): 79.93%
% of compound remaining when incubated in rat liver microsomes with NADPH ([5]; 10 min): 63.72%
% of compound remaining when incubated in rat liver microsomes with NADPH ([5]; 15 min): 51.52%
% of compound remaining when incubated in rat liver microsomes with NADPH ([5]; 30 min): 40.6%
% of compound remaining when incubated in rat liver microsomes with NADPH ([5]; 45 min): 35.16%
% of compound remaining when incubated in rat liver microsomes with NADPH ([5]; 60 min): 29.15%
IC50 ([3]; Homo sapiens, HCT-116, read-out: HCT-116 (p53 wild-type) IC50): < 3 µM

CC(C)(C)C[C@H]1N[C@@H](C(=O)NC2CN(CC(F)F)C2)[C@H](c2cccc(Cl)c2F)[C@@]12C(=O)Nc1cc(Cl)ccc12 [MI-519-72]
IC50 ([1]; Table 19D, read-out: MDM2 Binding Affinities IC50): < 1 µM

CC(C)(C)C[C@H]1N[C@@H](C(=O)NC2CCN(S(=O)(=O)C(F)(F)F)CC2)[C@H](c2cccc(Cl)c2F)[C@@]12C(=O)Nc1cc(Cl)ccc12 [MI-780]
IC50 ([1]; Table 19A, FP binding assay, read-out: MDM2 IC50): < 3 µM
IC50 ([2]; Homo sapiens, SJSA-1, Table 19A, SJSA-1 cells, p53 wild-type, cell growth, read-out: SJSA-1 (p53 wild-type) IC50): < 5 µM
